Like-named read-outs stand apart in the source and are kept apart here.
Key:
CDK6-CYCLIND3 = molecular target: T1, CDK6-CYCLIND3 (Homo sapiens, UniProt Q00534); test: Microfluidic LabChip kinase inhibition assay, CDK6-CyclinD3; type: biochemical; conditions: 300 μM ATP
T1 construct: purchased Carna

CDK4-CYCLIND1 = CDK4-CYCLIND1 (Homo sapiens, UniProt P11802); test: Microfluidic LabChip kinase inhibition assay, CDK4-CyclinD1; conditions: 200 μM ATP
[1] = Table 3a, read-out: CDK6 CyclinD3 IC50
[2] = Table 3b, read-out: CDK6 CyclinD3 IC50
[3] = CDK4 CyclinD1 IC50 (μM), Table 3a, second value in parentheses on the next line
[4] = CDK4 CyclinD1 IC50 (μM), Table 3b, second value in parentheses on the next line
[5] = Table 2, 2 nM enzyme, read-out: CDK6 IC50
[6] = CDK4 IC50 (μM), Table 2, 1 nM enzyme

T1 sequence (Q00534 whole entry): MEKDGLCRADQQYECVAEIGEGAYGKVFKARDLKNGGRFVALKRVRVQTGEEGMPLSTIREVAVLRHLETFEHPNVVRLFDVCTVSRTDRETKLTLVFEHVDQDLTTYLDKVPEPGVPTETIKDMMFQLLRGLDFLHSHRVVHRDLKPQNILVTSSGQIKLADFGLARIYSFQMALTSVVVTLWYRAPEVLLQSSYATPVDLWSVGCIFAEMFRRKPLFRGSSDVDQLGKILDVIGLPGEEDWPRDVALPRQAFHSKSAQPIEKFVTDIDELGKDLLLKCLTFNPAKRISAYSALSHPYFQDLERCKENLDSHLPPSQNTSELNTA
T1 sequence (P30281 whole entry partner): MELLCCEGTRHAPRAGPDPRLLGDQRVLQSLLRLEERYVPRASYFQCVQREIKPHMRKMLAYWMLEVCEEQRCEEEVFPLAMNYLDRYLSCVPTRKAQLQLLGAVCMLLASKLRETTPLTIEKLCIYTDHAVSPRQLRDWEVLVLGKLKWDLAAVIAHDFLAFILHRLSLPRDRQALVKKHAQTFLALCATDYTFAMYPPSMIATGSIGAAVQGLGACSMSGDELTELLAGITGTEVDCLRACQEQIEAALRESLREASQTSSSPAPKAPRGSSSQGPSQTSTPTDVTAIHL
Chain of CDK4-CYCLIND1 (P11802 whole entry): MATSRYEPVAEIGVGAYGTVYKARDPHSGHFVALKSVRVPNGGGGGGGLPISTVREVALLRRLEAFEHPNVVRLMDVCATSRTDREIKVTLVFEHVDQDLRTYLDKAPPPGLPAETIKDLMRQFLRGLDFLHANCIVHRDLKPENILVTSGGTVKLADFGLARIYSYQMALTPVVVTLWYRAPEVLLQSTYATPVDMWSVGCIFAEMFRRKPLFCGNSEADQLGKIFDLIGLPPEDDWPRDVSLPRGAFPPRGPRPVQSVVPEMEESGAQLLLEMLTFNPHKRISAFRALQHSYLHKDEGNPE
Chain of CDK4-CYCLIND1 (P24385 whole entry partner): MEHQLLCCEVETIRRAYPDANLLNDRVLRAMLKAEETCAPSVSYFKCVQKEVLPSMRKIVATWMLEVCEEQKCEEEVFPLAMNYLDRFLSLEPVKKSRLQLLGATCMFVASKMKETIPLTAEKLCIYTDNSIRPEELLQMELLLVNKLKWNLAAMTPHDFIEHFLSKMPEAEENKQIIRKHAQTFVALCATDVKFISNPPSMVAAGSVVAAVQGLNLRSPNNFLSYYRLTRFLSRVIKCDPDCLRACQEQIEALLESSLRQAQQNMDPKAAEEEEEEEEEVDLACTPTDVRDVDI

| SMILES | IC50 (CDK6-CYCLIND3; [1]) [µM] | IC50 (CDK6-CYCLIND3; [2]) [µM] | IC50 (CDK4-CYCLIND1; [3]) [µM] | IC50 (CDK4-CYCLIND1; [4]) [µM] | IC50 (CDK6-CYCLIND3; [5]) [µM] | IC50 (CDK4-CYCLIND1; [6]) [µM] |
| --- | --- | --- | --- | --- | --- | --- |
| O=C1NCCC12Cc1cnc(Nc3ccc(N4CCNCC4)c(F)c3)nc1N2C1CCCC1 (single isomer, unassigned) [Compound C203, 7′-cyclopentyl-2′-((3-fluoro-4-(piperazin-1-yl)phenyl)amino)-5′,7′-dihydrospiro[pyrrolidine-3,6′-pyrrolo[2,3-d]pyrimidin]-2-one] | 0.104 | 0.104 | 0.0245 | 0.0245 |  |  |
| O=C1NCCC12Cc1cnc(Nc3ccc(N4CCNCC4)c(F)c3)nc1N2C1CCCC1 (single isomer, unassigned) [Compound C204, 7′-cyclopentyl-2′-((3-fluoro-4-(piperazin-1-yl)phenyl)amino)-5′,7′-dihydrospiro[pyrrolidine-3,6′-pyrrolo[2,3-d]pyrimidin]-2-one] | 11.8 | 11.8 | 2.03 | 2.03 |  |  |
| CN1CCN(c2ccc(Nc3ncc4c(n3)N(C3CCCC3)C3(CCNC3=O)C4)cc2F)CC1 (single isomer, unassigned) [Compound C205, 7′-cyclopentyl-2′-((3-fluoro-4-(4-methylpiperazin-1-yl)phenyl)amino)-5′,7′-dihydrospiro[pyrrolidine-3,6′-pyrrolo[2,3-d]pyrimidin]-2-one] | 0.179 | 0.179 | 0.0413 | 0.0413 |  |  |
| CN1CCN(c2ccc(Nc3ncc4c(n3)N(C3CCCC3)C3(CCNC3=O)C4)cc2F)CC1 (single isomer, unassigned) [Compound C206, 7′-cyclopentyl-2′-((3-fluoro-4-(4-methylpiperazin-1-yl)phenyl)amino)-5′,7′-dihydrospiro[pyrrolidine-3,6′-pyrrolo[2,3-d]pyrimidin]-2-one] | 15.8 | 15.8 | 5.14 | 5.14 |  |  |
| CN1CCN(c2ccc(Nc3ncc4c(n3)N(C3CCCC3)C3(CCN(C)C3=O)C4)cc2)CC1 (stereo not shown) [Compound C1, 7′-cyclopentyl-1-methyl-2′-((4-(4-methylpiperazin-1-yl)phenyl)amino)-5′,7′-dihydrospiro[pyrrolidine-3,6′-pyrrolo[2,3-d]pyrimidin]-2-one] |  |  |  |  | 19.1 | 4.74 |
| CN1CCC2(Cc3cnc(Nc4ccc(N5CCNCC5)cc4)nc3N2C2CCCC2)C1=O (stereo not shown) [Compound C2, 7′-cyclopentyl-1-methyl-2′-((4-(piperazin-1-yl)phenyl)amino)-5′,7′-dihydrospiro[pyrrolidine-3,6′-pyrrolo[2,3-d]pyrimidin]-2-one] |  |  |  |  | 23.8 | 5.16 |
| CC(C)N1CCN(c2ccc(Nc3ncc4c(n3)N(C3CCCC3)C3(CCN(C)C3=O)C4)nc2)CC1 (stereo not shown) [Compound C3, 7′-cyclopentyl-2′-((5-(4-isopropylpiperazin-1-yl)pyridin-2-yl)amino)-1-methyl-5′,7′-dihydrospiro[pyrrolidine-3,6′-pyrrolo[2,3-d]pyrimidin]-2-one] |  |  |  |  | > 30 | > 30 |
| CN1CCN(c2ccc(Nc3ncc4c(n3)N(C3CCCC3)CC43CCNC3=O)nc2)CC1 (stereo not shown) [Compound C98, 7′-cyclopentyl-2′-((5-(4-methylpiperazin-1-yl)pyridin-2-yl)amino)-6′,7′-dihydrospiro[pyrrolidine-3,5′-pyrrolo[2,3-d]pyrimidin]-2-one] |  |  |  |  |  | 57.6 |
| O=C1NCCC12C(=O)N(C1CCCC1)c1nc(Nc3ccc(N4CCNCC4)cn3)ncc12 (stereo not shown) [Compound C99, 7′-cyclopentyl-2′-((5-(piperazin-1-yl)pyridin-2-yl)amino)spiro[pyrrolidine-3,5′-pyrrolo[2,3-d]pyrimidine]-2,6′(7′H)-dione] |  |  |  |  |  | 59.4 |
| CC(C)N1CCN(c2ccc(Nc3ncc4c(n3)N(C3CCCC3)C(=O)C43CCNC3=O)cc2F)CC1 (stereo not shown) [Compound C104, 7′-cyclopentyl-2′-((3-fluoro-4-(4-isopropylpiperazin-1-yl)phenyl)amino)spiro[pyrrolidine-3,5′-pyrrolo[2,3-d]pyrimidine]-2,6′(7′H)-dione] |  |  |  |  |  | 51 |
